Measured values taken from patent US9315475B2 (MERCK SHARP & DOHME CORP., priority 2011, dated 2016).

Legend:
wildtype HIV-1 protease = target: T1, wildtype HIV-1 protease (Human immunodeficiency virus type 1 group M subtype B, UniProt P04585); assay: Assay for inhibition of microbial expressed HIV protease (Pepcleav); assay type: biochemical; details: wild type HIV-1 protease expressed in E. coli, peptide substrate, pH 5.5; mean of at least two independent experiments; read-out: Pepcleav
T1 construct: the wildtype HIV-1 protease (which was expressed in Escherichia coli); made in house; host or cells: Escherichia coli
Outline: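 Cleavage of 400 μM peptide substrate Val-Ser-Gln-Asn-(βnaphthyl)Ala-Pro-Ile-Val by 20 pM wild-type enzyme (E. coli-expressed) ran 1 h at 30 °C after 30 min inhibitor preincubation, pH 5.5 acetate buffer. Inhibition derived from product peak area by C18 LC with multiple-reaction-monitoring MS after formic acid quench.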

HIV-1 (H9IIIB strain) = assay: Antiviral acute infection assay in cell culture (Spread); assay type: cell-based; details: Human immunodeficiency virus 1, T-lymphoid, HIV-1 H9IIIB infection of MT-4 human T-lymphoid cells in 10% FBS; mean of at least two independent experiments
Excerpt: Antiviral Assays in Cell Culture (“Spread”)
Acute Infection Assay (“Spread”) data were generated using HIV-1 (H9IIIB strain) infection of MT-4 human T-lymphoid cells in 10% FBS, and according to the methods disclosed by J. P. Vacca et al, “L-735,524: An orally bioavailable human immunodeficiency virus type 1 protease inhibitor,” Proc. Natl. Acad. Sci. USA, Vol. 91, pp. 4096-4100 (April 1994).

SMILES	IC50 (wildtype HIV-1 protease) [nM]	EC50 (HIV-1 (H9IIIB strain)) [nM]
CNC(=O)OC[C@@H]1CO[C@H](CCc2c(F)cncc2NC(=O)[C@@H](N)C(c2ccc(F)cc2)c2ccc(F)cc2)CN1 [Example 205, 4-fluoro-N-(5-fluoro-4-{2-[(2R,5S)-5-{[(methylcarbamoyl)oxy]methyl}morpholin-2-yl]ethyl}pyridin-3-yl)-β-(4-fluorophenyl)-L-phenylalaninamide]	24	58
CS(=O)(=O)c1cccc([C@@H](CC(=O)Nc2cccc(F)c2CC[C@@H]2CN[C@H](COC(=O)NCC(F)(F)F)CO2)c2ccc(Cl)cc2)c1 [Example 164, [(3S,6R)-6-{2-[2-({(3S)-3-(4-chlorophenyl)-3-[3-(methylsulfonyl)phenyl]propanoyl}amino)-6-fluorophenyl]ethyl}morpholin-3-yl] methyl (2,2,2-trifluoroethyl)carbamate]	3.4	63
COC(=O)N[C@H](C(=O)Nc1cncc(F)c1CC[C@@H]1CN[C@H](COC(=O)NCC(F)(F)F)CO1)[C@H](c1ccc(F)cc1)c1ccc(OC(F)(F)F)cc1 [Example 283]	14	69
CC1(CNC(=O)OC[C@@H]2CO[C@H](CCc3c(F)cncc3NC(=O)CC(c3ccc(F)cc3)c3ccc(F)cc3)CN2)CCCO1 (stereo partly drawn) [Example 166, {(3S,6R)-6-[2-(3-{[3,3-bis(4-fluoro-phenyl)propanoyl]amino}-5-fluoropyridin-4-yl)ethyl]morpholin-3-yl]methyl [(2-methyltetrahydrofuran-2-yl)methyl]carbamate]	14	37
COC(=O)N[C@H](C(=O)Nc1cncc(F)c1CC[C@@H]1CN[C@H](COC(=O)NCC(F)(F)F)CO1)[C@@H](c1ccc(F)cc1)c1ccc(F)c(F)c1 [Example 288]	3.2	16
COc1ccc([C@H](CC(=O)Nc2cccc(F)c2CC[C@@H]2CN[C@H](COC(=O)NCC(F)(F)F)CO2)c2ccc(F)cc2)cc1 [Example 151, {(3S,6R)-6-[2-(2-fluoro-6-{[(3S)-3-(4-fluorophenyl)-3-(4-methoxy-phenyl)propanoyl]amino}phenyl)ethyl]morpholin-3-yl}methyl (2,2,2-trifluoroethyl)carbamate]	100	290
N[C@H](C(=O)Nc1cncc(F)c1CC[C@@H]1CN[C@H](COC(=O)NCC2CNC(=O)O2)CO1)C(c1ccc(F)cc1)c1ccc(F)cc1 (stereo partly drawn) [Example 240, 4-fluoro-N-[5-fluoro-4-(2-{(2R,5S)-5-[({[(2-oxo-1,3-oxazolidin-5-yl)methyl]carbamoyl}oxy)methyl]morpholin-2-yl}ethyl)pyridin-3-yl]-β-(4-fluorophenyl)-L-phenylalaninamide]	39	5000
CN[C@H](C(=O)Nc1cncc(F)c1CC[C@@H]1CN[C@H](COC(=O)NCC(F)(F)F)CO1)C(c1ccc(F)cc1)c1ccc(F)cc1 [Example 202, 4-fluoro-β-(4-fluorophenyl)-N-(5-fluoro-4-{2-[(2R,5S)-5-({[(2,2,2-trifluoroethyl)carbamoyl]oxy}methyl)morpholin-2-yl]ethyl}pyridin-3-yl)-Nα-methyl-L-phenylalaninamide]	28	65
N[C@H](C(=O)Nc1cncc(F)c1CC[C@@H]1CN[C@H](COC(=O)NCC(F)(F)F)CO1)[C@@H](c1ccc(F)cc1)c1cccc(C(F)(F)F)c1 [Example 272, (βS)-4-fluoro-N-(5-fluoro-4-{2-[(2R,5S)-5-({[(2,2,2-trifluoroethyl)carbamoyl]oxy}methyl)morpholin-2-yl]ethyl}pyridin-3-yl)-β-[3-(trifluoromethyl)phenyl]-L-phenylalaninamide]	2	32
O=C(C[C@@H](c1ccc(F)cc1)c1cc(F)ccc1F)Nc1cncc(F)c1CC[C@@H]1CN[C@H](COC(=O)NCC(F)(F)F)CO1 [Example 149, {(3S,6R)-6-[2-(3-{[(3S)-3-(2,5-difluorophenyl)-3-(4-fluorophenyl)propanoyl]amino}-5-fluoropyridin-4-yl)ethyl]morpholin-3-yl}methyl (2,2,2-trifluoroethyl)carbamate]	1.4	14
N[C@H](C(=O)Nc1cc(F)cc(F)c1OC[C@@H]1CN[C@H](COC(=O)NCC(F)(F)F)CO1)C(c1ccc(F)cc1)c1ccc(F)cc1 [Example 245, N-(3,5-difluoro-2-{[(2S,5S)-5-({[(2,2,2-trifluoroethyl)carbamoyl]oxy}methyl)morpholin-2-yl]methoxy}phenyl)-4-fluoro-β-(4-fluorophenyl)-L-phenylalaninamide]	16	360
N[C@H](C(=O)Nc1cncc(F)c1CC[C@@H]1CNC(COC(=O)NCC(F)(F)F)CO1)[C@@H](c1ccc(F)cc1)c1cc(F)cc(F)c1 (stereo in doubt) [Example 90, (2S,3S)-2-Amino-3-(4-fluorophenyl)-3-(3,5-difluorophenyl)-N-(5-fluoro-4-(2-((2R,5R)-5-(2,2,2-trifluoroethylaminocarbonyloxymethyl)morpholine-2-yl)ethyl)pyridin-3-yl)propanamide]	2.4	49
CC[C@@H](NC(=O)OC[C@@H]1CO[C@H](CCc2c(F)cncc2NC(=O)[C@@H](N)C(c2ccc(F)cc2)c2ccc(F)cc2)CN1)C(F)(F)F [Example 216]	3.3	2000
COc1ccc([C@H](c2ccc(F)cc2)[C@H](N)C(=O)Nc2cncc(F)c2CC[C@@H]2CN[C@H](COC(=O)NCC(F)(F)F)CO2)cc1 [Example 250, (βR)-β-(4-fluorophenyl)-N-(5-fluoro-4-{2-[(2R,5S)-5-({[(2,2,2-trifluoroethyl)carbamoyl]oxy}methyl)morpholin-2-yl]ethyl}pyridin-3-yl)-O-methyl-L-tyrosinamide]	8.3	63
COC(=O)N[C@H](C(=O)Nc1cncc(F)c1CC[C@@H]1CN[C@H](COC(=O)NCC(F)(F)F)CO1)C(c1cccc(F)c1)c1cccc(F)c1 [Example 280, 3-fluoro-β-(3-fluorophenyl)-N-(5-fluoro-4-{2-[(2R,5S)-5-({[(2,2,2-trifluoroethyl)carbamoyl]oxy}methyl)morpholin-2-yl]ethyl}pyridin-3-yl)-Nα-(methoxycarbonyl)-L-phenylalaninamide]	1	15
COC(=O)N[C@H](C(=O)Nc1cccc(F)c1CC[C@@H]1CN[C@H](COC(=O)NCC(F)(F)F)CO1)[C@H](c1ccccc1)c1ccc2ccccc2c1 [Example 290, (βR)-N-(3-fluoro-2-{2-[(2R,5S)-5-({[(2,2,2-trifluoroethyl)carbamoyl]oxy}methyl)morpholin-2-yl]ethyl}phenyl)-Nα-(methoxycarbonyl)-β-naphthalen-2-yl-L-phenylalaninamide]	30	600
COC(=O)N[C@H](C(=O)Nc1cccc(F)c1CC[C@@H]1CN[C@H](COC(=O)NCC(F)(F)F)CO1)[C@@H](c1ccc(F)cc1)c1cccc(F)c1 [Example 287]	6	17
COC(=O)N[C@H](C(=O)Nc1cncc(F)c1CC[C@@H]1CN[C@H](COC(=O)NCC(F)(F)F)CO1)[C@H](c1ccc(F)cc1)c1cccc(F)c1 [Example 282, (βR)-4-fluoro-β-(3-fluorophenyl)-N-(5-fluoro-4-{2-[(2R,5S)-5-({[(2,2,2-trifluoroethyl)carbamoyl]oxy}methyl)morpholin-2-yl]ethyl}pyridin-3-yl)-Nα-(methoxycarbonyl)-L-phenylalaninamide]	3.7	25
COC(=O)N[C@H](C(=O)Nc1cncc(F)c1CC[C@@H]1CN[C@H](COC(=O)NCC(F)(F)F)CO1)[C@@H](c1ccc(F)cc1)c1cc(F)ccc1F [Example 300, (βS)-2,5-difluoro-β-(4-fluorophenyl)-N-(5-fluoro-4-{2-[(2R,5S)-5-({[(2,2,2-trifluoroethyl)carbamoyl]oxy}methyl)morpholin-2-yl]ethyl}pyridin-3-yl)-Nα-(methoxycarbonyl)-L-phenylalaninamide]	1.6	18
N[C@H](C(=O)Nc1cncc(F)c1CC[C@@H]1CN[C@H](COC(=O)NCc2cc3ccccc3cn2)CO1)C(c1ccc(F)cc1)c1ccc(F)cc1 [Example 239, {(3S,6R)-6-[2-(3-fluoro-5-{[4-fluoro-β-(4-fluorophenyl)-L-phenylalanyl]amino}pyridin-4-yl)ethyl]morpholin-3-yl}methyl (isoquinolin-3-ylmethyl)carbamatc]	45	420
O=C(C[C@@H](c1ccc(F)cc1)c1cc(F)cc(F)c1)Nc1cccc(F)c1CC[C@@H]1CN[C@H](COC(=O)NCC(F)(F)F)CO1 [Example 147, {(3S,6R)-6-[2-(2-{[(3S)-3-(3,5-difluorophenyl)-3-(4-fluorophenyl)propanoyl]amino}-6-fluorophenyl)ethyl]morpholin-3-yl} methyl (2,2,2-trifluoroethyl)carbamate]	4.9	120
COC(=O)N[C@H](C(=O)Nc1cccc(F)c1CC[C@@H]1CN[C@H](COC(=O)NCC(F)(F)F)CO1)[C@@H](c1ccc(F)cc1)c1cccc(OC(F)(F)F)c1 [Example 303, (βS)-4-fluoro-N-(3-fluoro-2-{2-[(2R, 5S)-5-({[(2,2,2-trifluoroethyl)carbamoyl]oxy}methyl)morpholin-2-yl]ethyl}phenyl)-Nα-(methoxy-carbonyl)-β-[3-(trifluoromethoxy)phenyl]-L-phenylalaninamide]	5.3	24
